Activity calls are given as the source filed them. The rule behind the calls is not given here.
What follows are compounds tested on HeLa (assay: Induction of cell cycle arrest in human HeLa cells assessed as accumulation of cells at S phase at 1 uM incubated for 18 hrs by FACS flow cytometry analysis (reference value: 17.41 +/- 1.16 %)). Conditions: not given.
Format: functional

Question: Which Activity does the source give for `Cc1[nH]c2c(c1-c1nnc(-c3ccccc3Cl)[se]1)Cc1ccccc1-2` here?
Answer: The Activity was 12.5%.

The compounds below were run on HeLa (assay: Induction of cell cycle arrest in human HeLa cells assessed as accumulation of cells at G1 phase at 1 uM incubated for 6 hrs by FACS flow cytometry analysis (reference value: 69.94 +/- 1.71 %)). Conditions: not given.
Format: functional

Question: With `Cc1[nH]c2c(c1-c1nnc(-c3ccccc3Cl)[se]1)Cc1ccccc1-2` as the compound, how does the Activity read?
Answer: Its Activity is 41.62%.

What follows are compounds tested on HeLa (assay: Induction of cell cycle arrest in human HeLa cells assessed as accumulation of cells at S phase at 1 uM incubated for 6 hrs by FACS flow cytometry analysis (reference value: 17.41 +/- 0.96 %)). Conditions: not given.
Format: functional

Question: With `Cc1[nH]c2c(c1-c1nnc(-c3ccccc3Cl)[se]1)Cc1ccccc1-2` as the compound, how does the Activity read?
Answer: Its Activity is 35.29%.

The compounds below were run on HeLa (assay: Induction of apoptosis in human HeLa cells assessed as early apoptotic cells at 1 uM incubated for 24 hrs by Annexin V-FITC/7-AAD staining based flow cytometric analysis (reference value: 2.7 +/- 0.424 %)). Conditions: not given.
Format: functional

Question: How did the Activity turn out when `Cc1[nH]c2c(c1-c1nnc(-c3ccccc3Cl)[se]1)Cc1ccccc1-2` was run?
Answer: Its Activity is 11.9%.

These compounds were tested on PC-3 (assay: Induction of cell cycle arrest in human PC-3 cells assessed as accumulation of cells at G2/M phase at 1 uM incubated for 12 hrs by FACS flow cytometry analysis (reference value: 20.74 +/- 1.95 %)). Conditions: not given.
Format: functional

Question: `Cc1[nH]c2c(c1-c1nnc(-c3ccccc3Cl)[se]1)Cc1ccccc1-2` was tested. Which Activity did it give?
Answer: Its Activity is 93.66%.

What follows are compounds tested on PC-3 (assay: Induction of cell cycle arrest in human PC-3 cells assessed as accumulation of cells at S phase at 1 uM incubated for 12 hrs by FACS flow cytometry analysis (reference value: 35.06 +/- 1.36 %)). Conditions: not given.
Format: functional

Question: How did the Activity turn out when `Cc1[nH]c2c(c1-c1nnc(-c3ccccc3Cl)[se]1)Cc1ccccc1-2` was run?
Answer: Its Activity is 5.7%.

The compounds below were run on PC-3 (assay: Antiproliferative activity against human PC-3 cells assessed as inhibition of cell growth incubated for 48 hrs by XTT assay). Conditions: PC-3, 48 h.
Format: functional, cell-based

Question: Which IC50 does the source give for `COc1ccc(-c2nnc(-c3c(C)[nH]c4c3Cc3ccccc3-4)s2)cc1` here?
Answer: The IC50 was over 10 µM.

Question: With `COc1ccc(-c2nnc(-c3c(C)[nH]c4c3Cc3ccccc3-4)[se]2)cc1` as the compound, how does the IC50 read?
Answer: Its IC50 is over 10 µM.

Question: With `Cc1[nH]c2c(c1-c1nnc(-c3ccc(Cl)c(Cl)c3)s1)Cc1ccccc1-2` as the compound, how does the IC50 read?
Answer: The IC50 was over 10 µM.

Question: For `Cc1[nH]c2c(c1-c1nnc(-c3ccccc3Cl)[se]1)Cc1ccccc1-2`, which IC50 is on record?
Answer: The IC50 was 0.067 µM.

The compounds below were run against T1, Tubulin (Homo sapiens) (UniProt P68371+Q9H4B7+P0DPH7+P68366+Q13509+Q71U36+P04350+Q3ZCM7+P07437+P68363+Q9BQE3+Q6PEY2+Q13885+Q9BVA1+Q9BUF5) (assay: Inhibition of tubulin polymerization in human HeLa cells assessed as irregular cell morphology at 0.5 uM incubated for 6 hrs by DAPI staining based fluorescence microscopic analysis). Conditions: not given.

Question: How did the inhibition turn out when `Cc1[nH]c2c(c1-c1nnc(-c3ccccc3Cl)[se]1)Cc1ccccc1-2` was run?
Answer: The inhibition was “Active”.

Each compound was assayed on MCF7 (assay: Antiproliferative activity against human MCF7 cells assessed as inhibition of cell growth incubated for 48 hrs by XTT assay). Conditions: MCF7, 48 h.
Format: functional, cell-based

Question: With `COc1ccc(-c2nnc(-c3c(C)[nH]c4c3Cc3ccccc3-4)s2)cc1` as the compound, how does the IC50 read?
Answer: Its IC50 is over 10 µM.

Question: `COc1ccc(-c2nnc(-c3c(C)[nH]c4c3Cc3ccccc3-4)[se]2)cc1` was tested. Which IC50 did it give?
Answer: Its IC50 is over 10 µM.

Question: With `Cc1[nH]c2c(c1-c1nnc(-c3ccc(Cl)c(Cl)c3)s1)Cc1ccccc1-2` as the compound, how does the IC50 read?
Answer: The IC50 was over 10 µM.

Question: Which IC50 does the source give for `Cc1[nH]c2c(c1-c1nnc(-c3ccccc3Cl)[se]1)Cc1ccccc1-2` here?
Answer: The IC50 was 0.091 µM.

What follows are compounds tested on PC-3 (assay: Induction of cell cycle arrest in human PC-3 cells assessed as accumulation of cells at S phase at 1 uM incubated for 6 hrs by FACS flow cytometry analysis (reference value: 35.06 +/- 1.85 %)). Conditions: not given.
Format: functional

Question: With `Cc1[nH]c2c(c1-c1nnc(-c3ccccc3Cl)[se]1)Cc1ccccc1-2` as the compound, how does the Activity read?
Answer: Its Activity is 55.33%.

The compounds below were run on PC-3 (assay: Induction of cell cycle arrest in human PC-3 cells assessed as accumulation of cells at G2/M phase at 1 uM incubated for 6 hrs by FACS flow cytometry analysis (reference value: 20.74 +/- 1.93 %)). Conditions: not given.
Format: functional

Question: Which Activity does the source give for `Cc1[nH]c2c(c1-c1nnc(-c3ccccc3Cl)[se]1)Cc1ccccc1-2` here?
Answer: Its Activity is 31.52%.

The compounds below were run on HeLa (assay: Induction of apoptosis in human HeLa cells assessed as late apoptotic cells at 1 uM incubated for 24 hrs by Annexin V-FITC/7-AAD staining based flow cytometric analysis (reference value: 11.1 +/- 0.778 %)). Conditions: not given.
Format: functional

Question: For `Cc1[nH]c2c(c1-c1nnc(-c3ccccc3Cl)[se]1)Cc1ccccc1-2`, which Activity is on record?
Answer: Its Activity is 58.2%.

The compounds below were run on HeLa (assay: Induction of cell cycle arrest in human HeLa cells assessed as accumulation of cells at G2/M phase at 1 uM incubated for 18 hrs by FACS flow cytometry analysis (reference value: 12.66 +/- 0.92 %)). Conditions: not given.
Format: functional

Question: How did the Activity turn out when `Cc1[nH]c2c(c1-c1nnc(-c3ccccc3Cl)[se]1)Cc1ccccc1-2` was run?
Answer: The Activity was 85.47%.

These compounds were tested on HeLa (assay: Induction of cell cycle arrest in human HeLa cells assessed as accumulation of cells at G1 phase at 1 uM incubated for 18 hrs by FACS flow cytometry analysis (reference value: 69.94 +/- 1.25 %)). Conditions: not given.
Format: functional

Question: How did the Activity turn out when `Cc1[nH]c2c(c1-c1nnc(-c3ccccc3Cl)[se]1)Cc1ccccc1-2` was run?
Answer: The Activity was 2.03%.

The compounds below were run on PC-3 (assay: Induction of cell cycle arrest in human PC-3 cells assessed as accumulation of cells at G1 phase at 1 uM incubated for 12 hrs by FACS flow cytometry analysis (reference value: 44.2 +/- 2.01 %)). Conditions: not given.
Format: functional

Question: With `Cc1[nH]c2c(c1-c1nnc(-c3ccccc3Cl)[se]1)Cc1ccccc1-2` as the compound, how does the Activity read?
Answer: Its Activity is 0.64%.

What follows are compounds tested on HeLa (assay: Inhibition of colony formation in human HeLa cells at IC50 incubated for 2 weeks with culture medium replacement for every 3 days by crystal violet staining based analysis). Conditions: not given.
Format: functional, cell-based

Question: `Cc1[nH]c2c(c1-c1nnc(-c3ccccc3Cl)[se]1)Cc1ccccc1-2` was tested. Which inhibition did it give?
Answer: Its inhibition is “Active”.

Each compound was assayed on HeLa (assay: Antiproliferative activity against human HeLa cells assessed as inhibition of cell growth incubated for 48 hrs by XTT assay). Conditions: not given.
Format: functional, cell-based

Question: How did the IC50 turn out when `COc1ccc(-c2nnc(-c3c(C)[nH]c4c3Cc3ccccc3-4)s2)cc1` was run?
Answer: Its IC50 is over 10 µM.

Question: `COc1ccc(-c2nnc(-c3c(C)[nH]c4c3Cc3ccccc3-4)[se]2)cc1` was tested. Which IC50 did it give?
Answer: Its IC50 is over 10 µM.

Question: With `Cc1[nH]c2c(c1-c1nnc(-c3ccc(Cl)c(Cl)c3)s1)Cc1ccccc1-2` as the compound, how does the IC50 read?
Answer: Its IC50 is over 10 µM.

Question: How did the IC50 turn out when `Cc1[nH]c2c(c1-c1nnc(-c3ccccc3Cl)[se]1)Cc1ccccc1-2` was run?
Answer: Its IC50 is 0.005 µM.

The compounds below were run on PC-3 (assay: Induction of cell cycle arrest in human PC-3 cells assessed as accumulation of cells at G1 phase at 1 uM incubated for 6 hrs by FACS flow cytometry analysis (reference value: 44.2 +/- 2.21 %)). Conditions: not given.
Format: functional

Question: For `Cc1[nH]c2c(c1-c1nnc(-c3ccccc3Cl)[se]1)Cc1ccccc1-2`, which Activity is on record?
Answer: Its Activity is 13.15%.

The compounds below were run against T1, Tubulin (Homo sapiens) (assay: Inhibition of tubulin polymerization in human HeLa cells assessed as aberrations in mitotic spindle and nucleus at 0.5 uM incubated for 6 hrs by DAPI staining based fluorescence microscopic analysis). Conditions: not given.
Format: cell-based

Question: Which inhibition does the source give for `Cc1[nH]c2c(c1-c1nnc(-c3ccccc3Cl)[se]1)Cc1ccccc1-2` here?
Answer: Its inhibition is “Active”.

These compounds were tested on HeLa (assay: Induction of cell cycle arrest in human HeLa cells assessed as accumulation of cells at G2/M phase at 1 uM incubated for 6 hrs by FACS flow cytometry analysis (reference value: 12.66 +/- 0.88 %)). Conditions: not given.
Format: functional

Question: How did the Activity turn out when `Cc1[nH]c2c(c1-c1nnc(-c3ccccc3Cl)[se]1)Cc1ccccc1-2` was run?
Answer: The Activity was 23.09%.

Each compound was assayed on HeLa (assay: Induction of apoptosis in human HeLa cells assessed as viable cells at 1 uM incubated for 24 hrs by Annexin V-FITC/7-AAD staining based flow cytometric analysis (reference value: 85.6 +/- 1.061%)). Conditions: read-out: Activity.
Format: functional

Question: `Cc1[nH]c2c(c1-c1nnc(-c3ccccc3Cl)[se]1)Cc1ccccc1-2` was tested. Which viability at 1 µM did it give?
Answer: Its viability at 1 µM is 24.6%.

These compounds were tested against T1, Tubulin (Homo sapiens) (assay: Inhibition of tubulin polymerization in human HeLa cells assessed as abnormal microtubule network at 0.5 uM incubated for 6 hrs by DAPI staining based fluorescence microscopic analysis). Conditions: not given.
Format: cell-based

Question: Which inhibition does the source give for `Cc1[nH]c2c(c1-c1nnc(-c3ccccc3Cl)[se]1)Cc1ccccc1-2` here?
Answer: Its inhibition is “Active”.

What follows are compounds tested on NB1 (assay: Cytotoxicity against human NB1 cells immortalized with hTERT plasmid assessed as reduction in cell viability at 1 to 2 uM incubated for 48 hrs by XTT assay). Conditions: nb1, 48 h, dose 1-2 µM.
Format: toxicity, cell-based

Question: For `Cc1[nH]c2c(c1-c1nnc(-c3ccccc3Cl)[se]1)Cc1ccccc1-2`, which Activity is on record?
Answer: The Activity was “Non-Toxic”.

What follows are compounds tested on HFF-1 (assay: Cytotoxicity against HFF-1 cells assessed as reduction in cell viability at 1 to 2 uM incubated for 48 hrs by XTT assay). Conditions: human, hff-1, 48 h, dose 1-2 µM.
Format: toxicity, cell-based

Question: How did the Activity turn out when `Cc1[nH]c2c(c1-c1nnc(-c3ccccc3Cl)[se]1)Cc1ccccc1-2` was run?
Answer: Its Activity is “Non-Toxic”.

What follows are compounds tested on PC-3 (assay: Inhibition of colony formation in human PC-3 cells at IC50 incubated for 2 weeks with culture medium replacement for every 3 days by crystal violet staining based analysis). Conditions: not given.
Format: functional, cell-based

Question: With `Cc1[nH]c2c(c1-c1nnc(-c3ccccc3Cl)[se]1)Cc1ccccc1-2` as the compound, how does the inhibition read?
Answer: The inhibition was “Active”.

What follows are compounds tested on HeLa (assay: Induction of apoptosis in human HeLa cells assessed as dead cells at 1 uM incubated for 24 hrs by Annexin V-FITC/7-AAD staining based flow cytometric analysis (reference value: 0.6 +/- 0.707 %)). Conditions: not given.
Format: functional

Question: Which Activity does the source give for `Cc1[nH]c2c(c1-c1nnc(-c3ccccc3Cl)[se]1)Cc1ccccc1-2` here?
Answer: The Activity was 5.3%.
